{
  "source": "paper PMC5384001",
  "about": "(Scientific Reports, 2017)",
  "key": {"[1]": {"target": "T1, GluD2-Lc(S544G)-(HS2)GluN1 (Rattus norvegicus, UniProt Q63226, A654T/A766F/D767R/N763E/R768S/S544G/T764L/V761T/V765F)", "T1 construct": "the function of full-length receptors as well, we introduced them into the GluD2 lurcher mutant (GluD2-Lc); expressed in transfected cells; host or cells: Xenopus laevis oocytes injected with cRNA", "T1 sequence (Q63226 24-1007 S544G/A654T/V761T/N763E/T764L/V765F/A766F/D767R/R768S)": "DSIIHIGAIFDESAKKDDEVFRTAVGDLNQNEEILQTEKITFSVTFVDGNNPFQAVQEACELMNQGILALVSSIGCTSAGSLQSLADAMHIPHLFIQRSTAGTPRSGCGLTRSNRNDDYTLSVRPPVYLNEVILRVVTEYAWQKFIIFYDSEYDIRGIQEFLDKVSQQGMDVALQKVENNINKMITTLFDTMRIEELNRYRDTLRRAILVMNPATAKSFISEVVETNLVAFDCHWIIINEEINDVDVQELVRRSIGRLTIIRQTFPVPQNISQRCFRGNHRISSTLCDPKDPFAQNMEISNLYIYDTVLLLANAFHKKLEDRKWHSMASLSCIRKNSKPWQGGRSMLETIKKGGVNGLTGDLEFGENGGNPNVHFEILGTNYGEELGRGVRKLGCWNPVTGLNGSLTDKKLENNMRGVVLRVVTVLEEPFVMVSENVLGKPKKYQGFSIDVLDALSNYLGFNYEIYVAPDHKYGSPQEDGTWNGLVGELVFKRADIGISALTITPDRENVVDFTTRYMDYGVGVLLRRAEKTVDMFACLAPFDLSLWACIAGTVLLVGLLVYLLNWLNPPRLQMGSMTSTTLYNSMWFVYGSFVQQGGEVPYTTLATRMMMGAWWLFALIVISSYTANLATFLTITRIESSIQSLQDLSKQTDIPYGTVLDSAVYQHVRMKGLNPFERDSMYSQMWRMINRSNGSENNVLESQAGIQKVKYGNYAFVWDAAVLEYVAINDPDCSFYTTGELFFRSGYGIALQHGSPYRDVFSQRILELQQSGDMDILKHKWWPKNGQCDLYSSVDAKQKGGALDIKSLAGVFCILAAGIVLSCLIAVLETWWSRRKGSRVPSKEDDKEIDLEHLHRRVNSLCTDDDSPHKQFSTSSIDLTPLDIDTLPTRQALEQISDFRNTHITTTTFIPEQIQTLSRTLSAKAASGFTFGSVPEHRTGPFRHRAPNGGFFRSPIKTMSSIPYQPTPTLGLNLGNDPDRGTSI", "assay": "Two-electrode voltage clamp in Xenopus oocytes, inhibition of spontaneous currents", "assay_type": "cell-based", "conditions": "fraction of spontaneous current inhibited by saturating D-serine"}, "[2]": {"target": "T2, GluD2-Lc-(H)GluN1 (Rattus norvegicus, UniProt Q63226, A654T/A766F/D542Y/D767R/N763E/R768S/S544G/T764L/V761T/V765F/Y543Q)", "T2 construct": "the function of full-length receptors as well, we introduced them into the GluD2 lurcher mutant (GluD2-Lc); expressed in transfected cells; host or cells: Xenopus laevis oocytes injected with cRNA", "T2 sequence (Q63226 24-1007 D542Y/Y543Q/S544G/A654T/V761T/N763E/T764L/V765F/A766F/D767R/R768S)": "T1 sequence (Q63226 24-1007 S544G/A654T/V761T/N763E/T764L/V765F/A766F/D767R/R768S) with D519Y, Y520Q", "assay": "Two-electrode voltage clamp in Xenopus oocytes, inhibition of spontaneous currents", "assay_type": "cell-based"}},
  "note": "Substitutions are numbered along the chain they refer to. “And” between values parts separate entries of the source, which are not always exact repeats. Identical values can stand only once.",
  "data": [
    {"smiles": "N[C@H](CO)C(=O)O", "note": "[D-serine]", "values": [
      {"measurement": "D-serine efficacy Mean ± SEM", "setting": "[1]", "value": "40.6 ± 0.5", "unit": "%"},
      {"measurement": "D-serine concentration of maximum inhibition of spontaneous currents", "setting": "[2]; bell-shaped concentration–response curve", "value": 10, "unit": "µM"},
      {"measurement": "D-serine efficacy Mean ± SEM", "setting": "[2]; fraction of spontaneous current inhibited by saturating D-serine", "value": "13% and 12.9 ± 0.8%"},
      {"measurement": "maximal, absolute, D-serine-induced steady-state inhibition of spontaneous currents", "setting": "[2]; n = 30", "value": "53 ± 8", "unit": "nA"}
    ]}
  ]
}
